Where “and” joins values, the source holds several entries; their conditions need not be identical. Equal entries are not always repeated. Entries after “also recorded” stand apart in the source; their conditions may differ. Where two headings read alike, the source gives them in different places.
Key:
[1] = test system: Peripheral Blood mononuclear cells from PV patients; assay: EEC colony formation assay; assay type: cell-based; details: Homo sapiens
[2] = test system: HEL cells; assay: Cell cycle distribution analysis by flow cytometry; assay type: cell-based, human; details: at IC50 concentration
[3] = test system: JAK2, STAT5, and 4EBP1 in SET2 cells; assay: Western blot of mTOR and JAK/STAT signaling; assay type: cell-based, human
Protocol: (§1) Cells were resuspended in RIPA lysis buffer (50 mM pH 7.4 Tris-HCl, 150 mM NaCl, 1% NP-40, 1 mMEDTA) containing a proteinase inhibitor cocktail (Halt Protease Inhibitor Cocktail Kit, PIERCE, Rockford, Ill., US) and subjected to sodium dodecyl sulphate polyacrylamide gel electrophoresis separation and western blotting onto Immunoblot PVDF membrane (BioRad, Hercules, Calif., US), according to standard protocols.
SET2 cells were incubated for 24 h with increasing concentrations of the drugs, and the level of total and phosphorylated JAK2, STAT5, and 4EBP1 was analyzed by western blot. Tubulin was used for loading normalization.

[4] = test system: UKE-1 cells; assay: Clonogenic assay; assay type: cell-based; details: compared with K562
[5] = test system: 4E-BP1 and STAT5 in Ba/F3 and Ba/F3-EPOR cells; assay: Western blot of 4E-BP1 and STAT5 phosphorylation; assay type: cell-based, murine
Protocol: as §1
To better characterize the correlation between JAK2V617F mutation and mTOR activation, as well as the consequences of mTOR inhibition on STAT5 phosphorylation, BA/F3 and Ba/F3-EPOR cells were used. First, it was observed that 4E-BP1 was minimally phosphorylated in JAK2 wt Ba/F3 and Ba/F3-EPOR cells deprived of cytokines, while it was hyper-phosphorylated in V617F cells, supporting previous data on Akt constitutive activation in JAK2V617F-mutated cells. […] STAT5 phosphorylation was greater in V617F cells compared to IL-3- or EPO-deprived JAK2 wt Ba/F3 or Ba/F3-EPOR cells, and it did increase substantially after cytokine exposure.

[6] = test system: SET2 cells; assay: Clonogenic assay in agar
[7] = test system: SET2 cells; assay: Cell cycle distribution analysis by flow cytometry; assay type: cell-based, human; details: at IC50 concentration
[8] = test system: SET2 cells; assay: Apoptosis by Annexin V flow cytometry; assay type: cell-based, human; details: SET2 cells exposed for 48 h
Excerpt: Results are expressed ad percent viable cells compared to control wells containing vehicle (DMSO) only. The fraction of necrotic cells was identified as the double-positive Annexin V/propidium iodide cells.

[9] = test system: HEL cells; assay: Clonogenic assay in agar; details: Homo sapiens, 168 h, read-out: IC50, clonogenic assay
[10] = test system: Ba/F3 JAK2 V617F cells; assay: Clonogenic assay in agar; details: Mus musculus, BaF3, 168 h, read-out: IC50, clonogenic assay
[11] = test system: Ba/F3 epoR JAK2 wild-type cells; assay: Clonogenic assay in agar; details: Mus musculus, BaF3, 168 h, read-out: IC50, clonogenic assay
[12] = test system: CD34+ cells from MPN patients; assay: Clonogenic assay with JAK2V617F single-colony genotyping; assay type: cell-based, human; details: for % decrease V617F: RAD001 50 nM vs without
Protocol: Samples of peripheral blood (PB) or bone marrow (BM) were obtained from patients diagnosed with PV or PMF (2008 WHO criteria) under a protocol approved by Institutional Review Board of Azienda Ospedaliera-Universitaria Careggi and after obtaining an informed consent. Healthy donors of hematopoietic stem cells provided informed consent to donate excess CD34^+ cells. Research was carried out according to the principles of Declaration of Helsinki. CD34^+ cells were immunomagnetically selected as described. The JAK2V617F mutational status was determined by a quantitative real-time PCR assay in granulocytes.
BM mononuclear cells from MPN patients or control subjects were plated at 1×10^5/mL in methylcellulose (MethoCult; StemCell Technologies, Vancouver, Canada) supplemented with SCF 50 ng/mL, IL-3 10 ng/mL, IL-6 10 ng/mL, GM-CSF 10 ng/mL, G-CSF 10 ng/mL and EPO 3 U/mL for the growth of BFU-E and CFU-GM. EEC assay was performed by plating 2.5×10^5/mL PB mononuclear cells from PV patients in methylcellulose containing leukocyte-conditioned medium without EPO (StemCell Technol., cat. No. #04531). For the growth of CFU-Mk, 5×10^4/mL CD34^+ cells were plated in a 24-well plate in Megacult Collagen and medium with lipids (StemCell Technol.) supplemented with Thrombopoietin 50 ng/mL, IL-3 10 ng/mL, IL-6 10 ng/mL. Colonies were enumerated on day 14 according to standard criteria.
For JAK2V617F single-colony genotyping an allele-specific PCR assay was used. Well-separated colonies (at least 40 colonies per point) were individually plucked off the semisolid medium in 5 μL DNase/RNase-free water, lysed at 95° C. for 5 minutes, and subjected to PCR amplification and gel electrophoresis.

[13] = test system: K562 cells; assay: Proliferation inhibition assay (WST-1); assay type: cell-based, human; details: Homo sapiens
Excerpt: (§2) The HEL, SET2 and K562 human cell lines were purchased from the German Collection of Microorganisms and Cell Cultures (DSMZ, Braunschweig, Germany). Murine BaF/3 and BaF/3-EPOR cells expressing JAK2 wild-type (wt) or JAK2V617F were donated by R. Skoda (Basel, Switzerland).

[14] = test system: SET2 cells; assay: Proliferation inhibition assay (WST-1); assay type: cell-based, human; details: Homo sapiens
Excerpt: as §2

[15] = test system: HEL cells; assay: Proliferation inhibition assay (WST-1); assay type: cell-based, human; details: Homo sapiens
Excerpt: as §2

[16] = test system: K562 cells; assay: Clonogenic assay in agar; details: Homo sapiens, K562, 168 h, read-out: IC50, clonogenic assay
[17] = test system: Ba/F3 epoR JAK2 V617F cells; assay: Clonogenic assay in agar; details: Mus musculus
[18] = test system: BaF/3 cells expressing JAK2 wild-type; assay: Proliferation inhibition assay (WST-1); assay type: cell-based, murine; details: Mus musculus, BaF3; BaF/3 WT; mIL-3 in culture medium
Excerpt: as §2

[19] = test system: BaF/3 cells expressing JAK2V617F; assay: Proliferation inhibition assay (WST-1); assay type: cell-based, murine; details: Mus musculus, BaF3; BaF/3 V617F, absence of IL-3
Excerpt: as §2

[20] = test system: BaF/3-EPOR cells expressing JAK2 wild-type; assay: Proliferation inhibition assay (WST-1); assay type: cell-based, murine; details: Mus musculus; BaF/3-EPOR WT; EPO in culture medium
Excerpt: as §2

[21] = test system: BaF/3-EPOR cells expressing JAK2V617F; assay: Proliferation inhibition assay (WST-1); assay type: cell-based, murine
Excerpt: as §2

[22] = SET2, 24 h, increasing concentrations

Q: Which IC50 ([1]; PBMC, read-out: IC50 of the mTOR inhibitor in drug combination with Cmp A) does the source give for `CO[C@H]1C[C@@H]2CC[C@@H](C)[C@@](O)(O2)C(=O)C(=O)N2CCCC[C@H]2C(=O)O[C@H]([C@H](C)C[C@@H]2CC[C@@H](OCCO)[C@H](OC)C2)CC(=O)[C@H](C)/C=C(\C)[C@@H](O)[C@@H](OC)C(=O)[C@H](C)C[C@H](C)/C=C/C=C/C=C/1C` [RAD001, Everolimus] here?
A: 1.9 nM

Q: And the IC50 ([1]; PBMC from PV patients, individual drug, read-out: IC50, clonogenic potential (EEC))?
A: 15 ± 10 nM

Q: What about the cell cycle effect [2] of the same compound?
A: cell cycle arrest of SET2 and HEL cells in the G0/G1 phase

Q: And the “phosphorylated JAK2” value [3, 22]?
A: unaffected

Q: What about the “phosphorylation of 4E-BP1” value [3, 22] of the same compound?
A: dose-dependently reduced phosphorylation; also recorded: inhibited the phosphorylation

Q: And the “phosphorylation of STAT5” value [3, 22]?
A: dose-dependently reduced phosphorylation; also recorded: appreciable decrease of STAT5 phosphorylation

Q: And the “total JAK2” value [3, 22]?
A: unaffected

Q: What about the clonogenic potential [4] of the same compound?
A: impaired the clonogenic potential

Q: And the STAT5 phosphorylation ([5]; evident at 60 min, up to 24 h, not shown)?
A: significantly downregulated

Q: And the 4E-BP1 phosphorylation ([5]; persisted up to at least 24 h, data not shown)?
A: marked inhibition

Q: And the IC50 ([6]; Homo sapiens, SET-2, read-out: IC50 of the mTOR inhibitor in drug combination with Cmp A, SET2, clonogenic agar assay, median of at least 3 experiments)?
A: 7 nM

Q: What about the IC50 ([6]; read-out: IC50, clonogenic assay, SET2, colonies day 7, individual drug) of the same compound?
A: 130 nM and 44 nM

Q: And the cell cycle effect [7]?
A: cell cycle arrest of SET2 and HEL cells in the G0/G1 phase

Q: And the “cell apoptosis (Annexin V-positive cells)” value [8]?
A: largely ineffective in inducing cell death; also recorded: did not induce cell death

Q: And the IC50 [9]?
A: 85 ± 30 nM

Q: And the IC50 [10]?
A: 6 ± 2 nM

Q: And the IC50 [11]?
A: 22 ± 10 nM

Q: And the “JAK2 genotype V617F colonies (%)” value ([12]; Pat. # 1, RAD001 50 nM)?
A: 6%

Q: What about the “JAK2 genotype Wild-type colonies (%)” value ([12]; Pat. # 1, RAD001 50 nM) of the same compound?
A: 94%

Q: What about the “% decrease V617F” value ([12]; Pat. # 1) of the same compound?
A: 70%

Q: And the “JAK2 genotype V617F colonies (%)” value ([12]; Pat. # 2, RAD001 50 nM)?
A: 40%

Q: What about the “JAK2 genotype Wild-type colonies (%)” value ([12]; Pat. # 2, RAD001 50 nM) of the same compound?
A: 60%

Q: And the “% decrease V617F” value ([12]; Pat. # 2)?
A: 15%

Q: And the “JAK2 genotype V617F colonies (%)” value ([12]; Pat. # 3, RAD001 50 nM)?
A: 57%

Q: What about the “JAK2 genotype Wild-type colonies (%)” value ([12]; Pat. # 3, RAD001 50 nM) of the same compound?
A: 43%

Q: What about the “% decrease V617F” value ([12]; Pat. # 3) of the same compound?
A: 21%

Q: And the “JAK2 genotype V617F colonies (%)” value ([12]; Pat. # 4, RAD001 50 nM)?
A: 40%

Q: What about the “JAK2 genotype Wild-type colonies (%)” value ([12]; Pat. # 4, RAD001 50 nM) of the same compound?
A: 58%

Q: And the “% decrease V617F” value ([12]; Pat. # 4)?
A: 17%

Q: And the “JAK2 genotype V617F colonies (%)” value ([12]; Pat. # 5, RAD001 50 nM)?
A: 9%

Q: And the “JAK2 genotype Wild-type colonies (%)” value ([12]; Pat. # 5, RAD001 50 nM)?
A: 91%

Q: And the “% decrease V617F” value ([12]; Pat. # 5)?
A: 72%

Q: And the “% decrease V617F, Mean ± SD” value ([12]; mean of 5 patients, RAD001 50 nM)?
A: 39% and 39 ± 29%

Q: What about the IC50 [13] of the same compound?
A: 16000 nM

Q: And the IC50 ([14]; SET-2, read-out: IC50 of the mTOR inhibitor in drug combination with Cmp A)?
A: 3.1 nM

Q: And the IC50 ([14]; SET-2, SET2, individual drug, read-out: IC50, proliferation inhibition)?
A: 17000 nM

Q: What about the IC50 [15] of the same compound?
A: 14000 nM

Q: What about the IC50 [16] of the same compound?
A: 10000 nM

Q: And the IC50 ([17]; BaF3, 168 h, read-out: IC50, clonogenic assay)?
A: 4 ± 2 nM

Q: And the IC50 ([17]; BaF3, read-out: IC50 of the mTOR inhibitor in drug combination with Cmp A)?
A: 1.1 nM

Q: And the IC50 [18]?
A: 2600 nM

Q: What about the IC50 [19] of the same compound?
A: 10 ± 4 nM

Q: And the IC50 [20]?
A: > 10000 nM

Q: And the IC50 ([21]; BaF/3-EPOR V617F + EPO, read-out: IC50, proliferation inhibition)?
A: 1230 nM

Q: What about the IC50 ([21]; BaF/3-EPOR V617F, absence of EPO, individual drug, read-out: IC50, proliferation inhibition) of the same compound?
A: 651 ± 50 nM

Q: And the IC50 ([21]; Mus musculus, BaF/3-EPOR V617F + EPO, read-out: IC50, proliferation inhibition)?
A: 1210 nM

Q: And the IC50 ([21]; Mus musculus, JAK2V617F Ba/F3-EPOR, proliferation, median of at least 3 experiments, read-out: IC50 of the mTOR inhibitor in drug combination with Cmp A)?
A: 363 nM

Q: With `N#CC[C@H](C1CCCC1)n1cc(-c2ncnc3[nH]ccc23)cn1` [Compound A, (3R)-3-cyclopentyl-3-[4-(7H-pyrrolo[2,3-d]pyrimidin-4-yl)-1H-pyrazol-1-yl]propanenitrile] as the compound, how does the IC50 ([1]; PBMC, read-out: IC50, clonogenic potential (EEC)) read?
A: 1.8 ± 1 nM

Q: What about the IC50 ([1]; PBMC, read-out: IC50 of Cmp A in drug combination with PP242) of the same compound?
A: 0.1 nM

Q: And the IC50 ([1]; PBMC, read-out: IC50 of Cmp A in drug combination with RAD001)?
A: 0.2 nM

Q: What about the “phosphorylated JAK2” value [3] of the same compound?
A: markedly and dose-dependently reduced phosphorylation

Q: And the “phosphorylation of 4E-BP1” value [3]?
A: unaffected

Q: And the “phosphorylation of STAT5” value [3]?
A: markedly and dose-dependently reduced phosphorylation

Q: What about the IC50 ([6]; Homo sapiens, SET-2, read-out: IC50 of Cmp A in drug combination with PP242) of the same compound?
A: 7.6 nM

Q: What about the IC50 ([6]; Homo sapiens, SET-2, read-out: IC50 of Cmp A in drug combination with RAD001) of the same compound?
A: 4 nM

Q: And the “cell apoptosis (Annexin V-positive cells)” value [8]?
A: dose-dependently potent inducers of cell apoptosis; also recorded: potently induced cell apoptosis

Q: What about the IC50 [9] of the same compound?
A: 374 ± 177 nM

Q: And the IC50 ([14]; SET-2, read-out: IC50 of Cmp A in drug combination with PP242)?
A: 47 nM

Q: What about the IC50 ([14]; SET-2, read-out: IC50 of Cmp A in drug combination with RAD001) of the same compound?
A: 29 nM

Q: What about the IC50 [16] of the same compound?
A: > 15000 nM
